This data set has as its system TXA2 agonist activity. In words: Absence of Agonist Activity (pressor response in pithed rats). The class given is in vivo.

Turning to `O=C(O)CCC/C=C\C[C@H]1[C@@H]2CC[C@@H](C2)[C@@H]1NS(=O)(=O)c1ccccc1` [Example S-145], where the note is “one minute after dosing at 0.1 mg/kg i.v.”, the mean arterial pressure entry is given as “transient, but significant, increase”.
On to `O=C(O)CCCC/C=C(\c1ccc(-c2nc(C(=O)NCCCCC3CCCCC3)co2)cc1)c1cccnc1` [Example 2, (E)-7-[4-[4-[[(4-Cyclohexylbutyl)amino]carbonyl]-2-oxazolyl]phenyl]-7-(3-pyridyl)hept-6-enoic Acid], for which the pressor response entry (i.v. administration, doses up to 10 mg/kg) is given as “absence of a pressor response”.
